Key:
[1] = Standard hypercalcemia assay (urine calcium, oral daily dosing for one week); assay type: in vivo; conditions: rat
CYP24 = biological target: T1, CYP24 (Homo sapiens, UniProt Q07973); experiment: CYP24 enzyme assay (V79-CYP24 cells, 3H-1α,25(OH)2D3 substrate); assay type: cell-based; conditions: substrate 20 nM, 2 hours, read-out: IC50 in the inhibition of CYP24
T1 construct: expressed in transfected cells; host or cells: V79-CYP24 cells (V79 = Chinese hamster lung fibroblasts, own knowledge; kept under hygromycin selection)
T1 sequence (Q07973 36-514): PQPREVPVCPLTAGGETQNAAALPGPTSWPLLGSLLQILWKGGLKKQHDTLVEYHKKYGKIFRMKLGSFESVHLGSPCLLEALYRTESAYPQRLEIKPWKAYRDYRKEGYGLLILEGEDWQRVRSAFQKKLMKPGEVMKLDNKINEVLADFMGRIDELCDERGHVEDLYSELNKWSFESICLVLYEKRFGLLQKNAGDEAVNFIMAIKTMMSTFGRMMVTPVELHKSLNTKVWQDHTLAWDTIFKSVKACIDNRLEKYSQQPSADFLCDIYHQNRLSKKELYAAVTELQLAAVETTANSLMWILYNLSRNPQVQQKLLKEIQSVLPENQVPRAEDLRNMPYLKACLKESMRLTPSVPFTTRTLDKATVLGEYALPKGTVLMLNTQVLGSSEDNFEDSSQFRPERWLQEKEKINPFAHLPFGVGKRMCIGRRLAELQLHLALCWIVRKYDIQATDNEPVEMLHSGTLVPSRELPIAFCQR
Experimental: (i) Material and Reagents:
Substrates (1 mM) reconstituted in isopropanol
1. Preparation of Cell Suspension • On the day of the assay, washed the monolayer of V79-CYP24 cells once with 1×PBS buffer and then trypsinized for 5 min at room temperature (approx. 22° C.). Added 1×PBS. Collected cells into tube, centrifuged cells (500×g, 5 min) and resuspended in DMEM+1% BSA media. Counted cells and adjusted density to 2 million/1 mL.
2. Cell Plating • Added 80 μl of cell suspension to appropriately labeled wells of a 96-well plate. Incubated plate for 45 minutes at 37° C. in a humidified atmosphere containing 5% CO2.
3. Compound Addition • Added 10 μl of inhibitor (10^−6 to 10^−10 M) and then after 35-40 min added 10 μl of substrate [^3H-1β]-1α,25(OH)2D3 (20 nM) for 2 hours at 37° C. in a humidified atmosphere containing 5% CO2. Both inhibitor and substrate were prepared in DMEM with 1% BSA media.
4. Lipid Extraction and Counting • Added 250 μl of methanol to stop the reaction and mixed. Added […] of dichloromethane, covered block and vortexed. Added […] of dichloromethane again, added […] of saturated KCl and vortexed. Centrifuged at 3000 rpm for 30 min. Triplicate 100 μl aliquots of aqueous fraction were mixed with 200 μl of scintillation fluid and the radioactivity was measured using a scintillation counter. All values were normalized for background. (iii) Results: • 1. […] (iv) Reference: 1. PCT Patent Application Serial No. PCT/CA03/00620

CYP24 mRNA = experiment: CYP24 transcriptional activation assay in U-937 cells (real time PCR); assay type: cell-based, human; conditions: six hours, normalized to GAPDH, 100 nM calcitriol set to 100%
Experimental: 1α,25(OH)2D3 1 mM reconstituted in isopropanol
• Sodium pyruvate • Non-essential amino acids • HEPES • 10% fetal bovine serum Phorbol 12-myristate 13-acetate (PMA) 24-well plate Isopropanol TRIzol® reagent (Invitrogen) Chloroform Ethanol Diethylpyrocarbonate treated dH2O Thermoscript™ RT-PCR System kit (Invitrogen) Human CYP24 TaqMan® Probe (Applied Biosystems Inc) Human GAPDH TaqMan® Probe (Applied Biosystems Inc) TaqMan® Universal Master Mix Probe (Applied Biosystems Inc) (ii) Procedure:
1. Cell Culture, Stimulation and Plating • Cultured U-937 cells in 4+RPMI media to a level of ≈80% confluence. Pelleted cells by centrifugation and resuspended to a concentration of 5×10^5 cells per 1 ml media. Treated U-937 cells with a final concentration of PMA of 20 ng/ml. To each well, of a 24-well plate, added 1 ml of cell suspension and incubated overnight at 37° C., in a humidified atmosphere containing 5% CO2, for adherence of cells to the wells.
2. Cell Treatment and TRIzol® Addition • Changed the media with 1 ml of fresh 4+RPMI media. Added 1 μl of the working solutions of 1, 10, and 100 μM of the compound being tested, in triplicate. Added 1 μl of isopropanol as a control, in triplicate. Incubated the cells for six hours at 37° C., in a humidified atmosphere containing 5% CO2, aspirated off the media and then added 1 ml of TRIzol® reagent. Transferred TRIzol® with cell lysate to a 1.7 ml microcentrifuge tube and stored at −80° C.
3. […] Determined the concentration of RNA using a spectrophotometer to measure the optical density of each sample, at a wavelength of 260 nm. […]
4. CYP24/GAPDH Real Time PCR • Determined the amount of CYP24 and GAPDH mRNA present in each sample using commercial TaqMan® probes, from Applied Biosystems Inc. (Foster City, Calif.). Detected both genes in the same 20 μl reaction, using an ABI PRISM 96-well optical reaction plate and cycle 50 times using an ABI Prism 7000 Sequence Detection System® (ABI). […]

OVCAR-3 cells = experiment: [3H]-Thymidine proliferation assay with OVCAR-3 cells; assay type: cell-based; conditions: ovarian cancer cells, 6 days, 3H-thymidine incorporation
Experimental: 1. Preparation of Suspension • When OVCAR-3 cells were ˜50% confluent, aspirated media. Washed cells with 1×PBS. Trypsinized with trypsin-EDTA, collected cells from the tissue culture flask, centrifuged (200×g, 5 min) and resuspended in media.
2. Cell Plating. • Counted the cells and adjusted the cell density to 11.4×10^3 to provide 2000 cells in 175 μl (for 1 well). Distributed cell suspension into a 96 well plates at 175 μl (2000 cells) per well. Incubated plate for 24 h at 37° C. in a humidified atmosphere plus 5% CO2. • Substrate addition. • Added 25 μl of compound (final concentration 10^−7 M, 5×10^−8 M 10^−8 M, 5×10^−9 M, 10^−9 M, 10^−10M or 0 M) into each designated well. Incubated plates for 6 days without changing media and drugs at 37° C. in a humidified atmosphere plus 5% CO2.
3. [^3H]-Thymidine incorporation • Added ^3H-thymidine at 0.02 μCi per well and incubated at 37° C. in a humidified atmosphere plus 5% CO2 for 6 h.
4. Plate Harvesting. • Aspirated all media and washed cells with 1×PBS. Trypsinized cells for 30 min at 37° C. in a humidified atmosphere plus 5% CO2. Harvested cells onto a 96 well filter plate (Millipore) using a Tomtec Cell Harvestor, according to manufacturers instructions.
5. Scintillation Counting. • Added 25 μl of scintillation fluid per well. Counted the plate using a scintillation counter. Results: Compounds (20R)-I(a), (20R)-I(c) and (20R)-I(e) all inhibited the proliferation of OVCAR-3 cells.

C=C1/C(=C\C=C2/CCC[C@]3(C)[C@@H]([C@H](C)CCCC(C)(C)O)CC[C@@H]23)C[C@@H](O)C[C@@H]1O [calcitriol, 1α,25-Dihydroxy vitamin D3]
Levels of calcium in the urine [1]: significant increase

C=C1/C(=C\C=C2/CCC[C@]3(C)C([C@H](C)C/C=C/C(=N\OC)C(F)(F)F)=CC[C@@H]23)C[C@@H](O)C[C@@H]1O [(20R)-I(a)]
IC50 (CYP24): 488 nM
CYP24 mRNA induction, activity as % of that for calcitriol at 100 nM (CYP24 mRNA): 54%
Inhibition of OVCAR-3 cell proliferation (OVCAR-3 cells): inhibited

C=C1/C(=C\C=C2/CCC[C@]3(C)C([C@H](C)C/C=C/C(=N\OC)C4CC4)=CC[C@@H]23)C[C@@H](O)C[C@@H]1O [(20R)-I(c)]
IC50 (CYP24): 85.9 nM
CYP24 mRNA induction, activity as % of that for calcitriol at 100 nM (CYP24 mRNA): 30%
Inhibition of OVCAR-3 cell proliferation (OVCAR-3 cells): inhibited

Reference: US8906888B2, “Low-calcemic 16,23-diene 25-oxime analogs of 1α,25-dihydroxy vitamin D3” (Cytochroma Inc., priority 2005, dated 2014)
